In ChEMBL document CHEMBL1201862, “PubChem BioAssay data set” (2004):
Activity calls are given as the source filed them.

How the values were obtained:
[1] = YAP1 pathway inhibition via CTGF transcript levels, dose response, cell-based, DLD1 colon cancer, RT-qPCR, cherry-pick (AID 1053122); type: functional; details: Cancer cell lines
[2] = Counterscreen for antagonists of the human trace amine associated receptor 1 (hTAAR1): Fluorescence-based cell-based high throughput dose response assay to identify nonselective Ga16 antagonists.; type: functional
[3] = Counterscreen for […] of the human trace amine associated receptor 1 (TAAR1): Fluorescence-based cell-based high throughput dose response assay to identify nonselective Ga16 agonists.; type: functional
[4] = biological target: T1, Trace amine-associated receptor 1 (Homo sapiens, UniProt Q96RJ0); experiment: Fluorescence-based cell-based high throughput dose response assay to identify antagonists of the human trace amine associated receptor 1 (TAAR1).; type: functional
T1 sequence (Q96RJ0 whole entry): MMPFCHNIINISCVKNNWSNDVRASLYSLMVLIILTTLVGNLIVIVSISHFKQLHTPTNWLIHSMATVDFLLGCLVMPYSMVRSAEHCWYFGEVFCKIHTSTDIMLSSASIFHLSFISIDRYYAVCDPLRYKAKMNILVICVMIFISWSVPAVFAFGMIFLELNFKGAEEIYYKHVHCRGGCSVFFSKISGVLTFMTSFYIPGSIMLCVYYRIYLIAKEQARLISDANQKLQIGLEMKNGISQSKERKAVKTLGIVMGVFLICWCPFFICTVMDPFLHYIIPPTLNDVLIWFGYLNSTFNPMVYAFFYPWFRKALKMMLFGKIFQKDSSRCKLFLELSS

[5] = biological target: T1, Trace amine-associated receptor 1; experiment: Counterscreen for antagonists of the human trace amine associated receptor 1 (hTAAR1): Fluorescence-based cell-based high throughput dose response assay to identify TAAR1 Agonists.; type: functional
[6] = biological target: 72 kDa type IV collagenase (Homo sapiens, UniProt P08253); experiment: Dose Response validation of uHTS RPN11 inhibitor hits using a MMP-2 Fluorescence assay.; type: functional
Chain of 72 kDa type IV collagenase (P08253 whole entry): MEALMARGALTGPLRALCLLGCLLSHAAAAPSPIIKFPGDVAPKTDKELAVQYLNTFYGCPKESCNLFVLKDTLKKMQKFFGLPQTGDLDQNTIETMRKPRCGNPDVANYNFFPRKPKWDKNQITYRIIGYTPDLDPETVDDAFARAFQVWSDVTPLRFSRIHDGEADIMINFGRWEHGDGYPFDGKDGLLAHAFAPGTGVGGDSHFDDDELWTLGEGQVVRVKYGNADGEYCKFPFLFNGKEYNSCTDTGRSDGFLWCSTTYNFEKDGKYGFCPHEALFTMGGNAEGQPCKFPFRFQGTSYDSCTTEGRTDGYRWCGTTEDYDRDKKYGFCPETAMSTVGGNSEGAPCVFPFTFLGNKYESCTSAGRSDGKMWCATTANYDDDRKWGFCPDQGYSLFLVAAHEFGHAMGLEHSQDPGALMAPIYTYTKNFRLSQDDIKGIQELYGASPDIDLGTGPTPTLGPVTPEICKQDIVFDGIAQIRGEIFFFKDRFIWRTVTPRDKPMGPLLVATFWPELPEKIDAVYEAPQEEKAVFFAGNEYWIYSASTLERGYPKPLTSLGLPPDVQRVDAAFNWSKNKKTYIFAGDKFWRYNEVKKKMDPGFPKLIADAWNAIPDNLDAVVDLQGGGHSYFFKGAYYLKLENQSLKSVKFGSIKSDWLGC

Albumin = Albumin (Bos taurus, UniProt P02769); experiment: Counterscreen for inhibitors of T-cell receptor (TCR)-CD3 interaction: Fluorescence-based biochemical high throughput dose response assay to identify inhibitors of T-cell receptor (TCR)-CD3 interaction using a TAMRA-labeled BSA probe.; type: functional
[7] = biological target: 26S proteasome non-ATPase regulatory subunit 14 (Homo sapiens, UniProt O00487); experiment: inhibition of proteasome subunit RPN11 – biochemical, fluorescence polarization, uHTS hits, confirmation (AID 602368); type: functional
[8] = cytotoxicity in HEK-293T cells, dose response, cytotoxicity control for BCR NF-kB inhibitor project, luminescence, B-cell screen hits (AID 489021); type: functional, cell-based;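 also: HEK-293T cells carrying an NF-kB luciferase reporter; cells exposed to compound for about 14 hours before viability readout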
Prothrombin = Prothrombin (Bos taurus, UniProt P00735); experiment: thrombin inhibition, dose response, biochemical, fluorescence polarization, uHTS hits (AID 602369); type: functional
[9] = biological target: Metabotropic glutamate receptor 5 (Rattus norvegicus, UniProt P31424); experiment: Identification of a glycine sulfonamide based non-MPEP site positive allosteric potentiator (PAM) of mGlu5 (calcium_assay).; type: functional
Chain of Metabotropic glutamate receptor 5 (P31424 whole entry): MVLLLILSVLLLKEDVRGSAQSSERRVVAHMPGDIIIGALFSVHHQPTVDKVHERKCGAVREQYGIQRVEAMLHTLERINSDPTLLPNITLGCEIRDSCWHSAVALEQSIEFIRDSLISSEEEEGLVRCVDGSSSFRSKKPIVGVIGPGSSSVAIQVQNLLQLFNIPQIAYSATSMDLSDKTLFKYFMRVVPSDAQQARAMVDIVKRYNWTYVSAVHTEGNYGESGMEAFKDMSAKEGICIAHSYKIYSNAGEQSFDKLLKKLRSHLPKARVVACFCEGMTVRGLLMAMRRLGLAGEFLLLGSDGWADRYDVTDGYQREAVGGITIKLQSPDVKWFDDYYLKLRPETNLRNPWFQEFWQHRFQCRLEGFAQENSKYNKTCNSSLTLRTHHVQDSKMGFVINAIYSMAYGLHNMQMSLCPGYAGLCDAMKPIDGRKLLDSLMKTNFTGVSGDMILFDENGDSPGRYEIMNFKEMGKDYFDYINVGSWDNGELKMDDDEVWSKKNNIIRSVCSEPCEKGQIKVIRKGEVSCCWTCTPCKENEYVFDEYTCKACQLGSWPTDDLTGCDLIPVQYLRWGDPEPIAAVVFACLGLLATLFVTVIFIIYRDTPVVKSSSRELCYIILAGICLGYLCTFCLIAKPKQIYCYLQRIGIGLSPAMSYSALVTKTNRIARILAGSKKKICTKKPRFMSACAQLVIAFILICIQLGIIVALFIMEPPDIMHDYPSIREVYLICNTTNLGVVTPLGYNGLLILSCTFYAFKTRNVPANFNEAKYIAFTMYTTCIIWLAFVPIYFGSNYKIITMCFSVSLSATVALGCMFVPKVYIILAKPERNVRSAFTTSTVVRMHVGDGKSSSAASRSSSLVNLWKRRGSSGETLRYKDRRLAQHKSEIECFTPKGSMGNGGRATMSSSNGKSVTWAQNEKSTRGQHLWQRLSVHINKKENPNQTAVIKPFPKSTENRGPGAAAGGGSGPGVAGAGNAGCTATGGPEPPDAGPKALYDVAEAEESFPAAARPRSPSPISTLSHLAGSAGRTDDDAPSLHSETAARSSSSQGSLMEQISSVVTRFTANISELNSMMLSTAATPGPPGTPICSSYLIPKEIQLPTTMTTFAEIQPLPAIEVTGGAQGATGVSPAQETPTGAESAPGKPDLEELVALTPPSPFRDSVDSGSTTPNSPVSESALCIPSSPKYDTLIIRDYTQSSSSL

[10] = biological target: T2, Microphthalmia-associated transcription factor (Homo sapiens, UniProt O75030); experiment: TRPM1 promoter luciferase signal decrease, dose response, MITF inhibitor project, cell-based, SK-MEL-5, cherry-picked, set 3 (AID 493073); type: functional
T2 sequence (O75030 whole entry): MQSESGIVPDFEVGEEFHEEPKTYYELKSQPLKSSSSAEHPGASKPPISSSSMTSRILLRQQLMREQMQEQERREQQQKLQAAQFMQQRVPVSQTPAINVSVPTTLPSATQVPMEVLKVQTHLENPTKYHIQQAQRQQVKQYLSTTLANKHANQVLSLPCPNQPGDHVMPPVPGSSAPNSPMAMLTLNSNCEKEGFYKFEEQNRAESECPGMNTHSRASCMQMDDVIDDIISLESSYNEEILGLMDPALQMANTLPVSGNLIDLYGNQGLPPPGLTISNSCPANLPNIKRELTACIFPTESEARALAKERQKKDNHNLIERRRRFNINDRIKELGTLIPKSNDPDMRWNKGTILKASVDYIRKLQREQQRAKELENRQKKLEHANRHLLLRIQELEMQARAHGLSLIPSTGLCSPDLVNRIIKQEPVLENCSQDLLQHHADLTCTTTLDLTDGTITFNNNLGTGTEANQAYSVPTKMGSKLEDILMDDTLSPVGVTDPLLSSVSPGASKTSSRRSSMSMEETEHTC

Cytochrome P450 3A4 = Cytochrome P450 3A4 (Homo sapiens, UniProt P08684);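 also: CYP3A4 tested as one member of a cytochrome P450 panel screen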
Chain of Cytochrome P450 3A4 (P08684 whole entry): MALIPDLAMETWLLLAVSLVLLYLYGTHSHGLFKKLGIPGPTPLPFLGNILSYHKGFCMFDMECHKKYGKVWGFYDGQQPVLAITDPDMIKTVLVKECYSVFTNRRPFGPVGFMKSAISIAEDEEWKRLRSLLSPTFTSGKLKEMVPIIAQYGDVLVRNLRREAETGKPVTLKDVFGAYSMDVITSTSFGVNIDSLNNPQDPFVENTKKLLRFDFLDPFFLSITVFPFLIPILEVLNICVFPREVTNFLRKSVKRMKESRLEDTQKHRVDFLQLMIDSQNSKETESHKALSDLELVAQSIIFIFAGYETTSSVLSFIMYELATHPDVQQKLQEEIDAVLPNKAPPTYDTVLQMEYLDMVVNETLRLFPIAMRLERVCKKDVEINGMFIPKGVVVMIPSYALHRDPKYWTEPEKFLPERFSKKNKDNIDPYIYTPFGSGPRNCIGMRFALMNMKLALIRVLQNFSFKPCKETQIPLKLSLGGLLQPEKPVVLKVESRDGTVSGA

[11] = biological target: Matrix metalloproteinase-14 (Homo sapiens, UniProt P50281); experiment: Dose Response confirmation of uHTS hits for a small molecule inhibitors of MT1-MMP activation in a fluorescence assay set 1.; type: functional
NS3 = NS3 (Hepatitis C virus, UniProt A3EZJ3); experiment: HCV NS3 helicase inhibitor potency, dose response, biochemical, fluorescence polarization, ChemBridge library (AID 743264)
[12] = cytotoxicity in HeLa cells, dose response, cytotoxicity control, cell-based, 24 h, dry powder, set 2 (AID 651774); type: functional
Vero = experiment: Vero cell toxicity, dose response, cytotoxicity control, plate reader, cherry-pick samples (AID 687020); type: functional, cell-based; details: Chlorocebus sabaeus
[13] = biological target: Lysosomal acid glucosylceramidase (Homo sapiens, UniProt P04062); experiment: Dose response cell-based high throughput screening assay to identify enhancers of beta-glucosidase activity. [Related pubchem assays: 784 ]; type: functional
Chain of Lysosomal acid glucosylceramidase (P04062 whole entry): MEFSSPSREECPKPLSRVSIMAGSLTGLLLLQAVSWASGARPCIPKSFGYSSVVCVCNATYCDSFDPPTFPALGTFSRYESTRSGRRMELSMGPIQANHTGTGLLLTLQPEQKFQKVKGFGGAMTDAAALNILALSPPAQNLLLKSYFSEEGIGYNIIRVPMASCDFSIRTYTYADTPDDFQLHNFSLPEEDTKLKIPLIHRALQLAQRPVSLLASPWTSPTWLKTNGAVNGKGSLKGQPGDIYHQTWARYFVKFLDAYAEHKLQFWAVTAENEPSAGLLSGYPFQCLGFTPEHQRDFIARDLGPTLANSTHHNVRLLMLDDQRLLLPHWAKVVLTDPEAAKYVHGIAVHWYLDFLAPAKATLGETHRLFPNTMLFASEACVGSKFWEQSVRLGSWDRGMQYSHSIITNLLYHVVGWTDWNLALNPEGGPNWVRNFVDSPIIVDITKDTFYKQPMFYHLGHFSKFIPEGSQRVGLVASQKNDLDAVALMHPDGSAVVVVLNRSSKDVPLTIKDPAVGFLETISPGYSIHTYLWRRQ

cells [14] = details: HEK293
cells [15] = details: A549
[16] = HEK293T cell cytotoxicity, dose response, cytotoxicity control for HIV Vif inhibitor project, cherry-picks (AID 652208); type: functional, cell-based
[17] = biological target: Oxysterols receptor LXR-beta (Homo sapiens, UniProt P55055); type: functional, cell-based;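 also: agonist activity at LXR measured by a cell-based luminescence readout across a dose range, run as a counterscreen for daf-12 agonists; HEK293 cells with Gal4-LXR fusion and GAL4-driven luciferase reporter; potency for activation of Gal4-LXR reporter so compounds are agonists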
Chain of Oxysterols receptor LXR-beta (P55055 whole entry, the tested form may be a part): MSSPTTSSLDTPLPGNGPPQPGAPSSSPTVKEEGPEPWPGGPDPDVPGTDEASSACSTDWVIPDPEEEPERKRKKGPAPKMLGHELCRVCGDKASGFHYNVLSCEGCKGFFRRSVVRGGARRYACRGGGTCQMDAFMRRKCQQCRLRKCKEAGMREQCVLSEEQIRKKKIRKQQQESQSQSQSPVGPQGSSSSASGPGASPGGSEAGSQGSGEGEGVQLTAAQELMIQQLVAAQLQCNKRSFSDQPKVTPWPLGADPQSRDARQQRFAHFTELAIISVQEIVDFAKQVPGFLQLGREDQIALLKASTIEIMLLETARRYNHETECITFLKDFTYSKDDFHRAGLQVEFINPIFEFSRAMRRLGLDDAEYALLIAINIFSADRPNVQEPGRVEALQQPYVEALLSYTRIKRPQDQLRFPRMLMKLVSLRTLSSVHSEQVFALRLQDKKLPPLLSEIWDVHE

HT-1080 = experiment: cytotoxicity in HT1080 fibrosarcoma cells, cell-based, fluorescence readout (AID 620); type: functional; details: Homo sapiens
[18] = growth suppression of beta-catenin-knockout colon cells, dose response, cell-based, HCT116, human colon tumor (AID 1045); type: functional;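 also: HCT116 colon tumor cells with beta catenin knocked out; cells exposed to compound for 60 hours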
[19] = growth suppression of PTEN-null colon cells, dose response, cell-based, HCT116 PTEN knockout (AID 1047); type: functional;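 also: HCT116 colon tumor cells with PTEN knocked out; cells exposed to compound for 60 hours before readout; potency for loss of cell viability measured by luminescence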
[20] = biological target: Luciferin 4-monooxygenase (Photinus pyralis, UniProt P08659); experiment: Counter Screen for Luciferase-based Assay Positives. [Related pubchem assays: 620, 618, 411 ]
Chain of Luciferin 4-monooxygenase (P08659 whole entry): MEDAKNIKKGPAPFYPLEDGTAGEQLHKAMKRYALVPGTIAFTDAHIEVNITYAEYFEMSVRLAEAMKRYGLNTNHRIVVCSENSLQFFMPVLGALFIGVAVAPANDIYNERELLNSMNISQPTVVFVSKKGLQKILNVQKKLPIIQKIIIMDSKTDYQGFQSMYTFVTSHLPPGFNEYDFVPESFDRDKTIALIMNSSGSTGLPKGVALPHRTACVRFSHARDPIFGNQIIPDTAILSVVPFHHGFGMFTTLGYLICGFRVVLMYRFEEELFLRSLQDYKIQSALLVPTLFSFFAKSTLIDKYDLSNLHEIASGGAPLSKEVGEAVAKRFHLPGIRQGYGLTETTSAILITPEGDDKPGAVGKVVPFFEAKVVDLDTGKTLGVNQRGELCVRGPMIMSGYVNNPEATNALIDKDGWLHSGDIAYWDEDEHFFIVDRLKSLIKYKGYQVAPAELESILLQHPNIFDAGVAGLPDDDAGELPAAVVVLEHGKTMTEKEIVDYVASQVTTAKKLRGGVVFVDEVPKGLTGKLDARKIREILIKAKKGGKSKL

[21] = biological target: 5-hydroxytryptamine receptor 2A (Mus musculus, UniProt P35363); type: functional, cell-based;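 also: CHO-K1 cells with tagged receptor and beta-arrestin; agonist potency measured as compound-induced activation of the receptor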
Chain of 5-hydroxytryptamine receptor 2A (P35363 whole entry): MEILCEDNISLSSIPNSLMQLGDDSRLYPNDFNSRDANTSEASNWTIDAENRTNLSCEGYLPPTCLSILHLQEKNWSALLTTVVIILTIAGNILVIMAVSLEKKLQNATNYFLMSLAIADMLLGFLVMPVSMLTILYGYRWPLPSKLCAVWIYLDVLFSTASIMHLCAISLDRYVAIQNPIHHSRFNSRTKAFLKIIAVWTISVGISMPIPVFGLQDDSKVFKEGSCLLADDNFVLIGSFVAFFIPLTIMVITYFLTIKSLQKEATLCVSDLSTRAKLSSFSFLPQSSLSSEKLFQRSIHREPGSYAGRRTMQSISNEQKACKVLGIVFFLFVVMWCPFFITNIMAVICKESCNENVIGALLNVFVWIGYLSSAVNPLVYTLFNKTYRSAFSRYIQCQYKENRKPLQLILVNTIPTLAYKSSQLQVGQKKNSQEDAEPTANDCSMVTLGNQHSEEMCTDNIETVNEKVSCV

Mu-type opioid receptor = Mu-type opioid receptor (Homo sapiens, UniProt P35372); type: functional, cell-based;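 also: U2OS cells with beta-arrestin recruitment to OPRM1 by beta-gal complementation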
Chain of Mu-type opioid receptor (P35372 whole entry): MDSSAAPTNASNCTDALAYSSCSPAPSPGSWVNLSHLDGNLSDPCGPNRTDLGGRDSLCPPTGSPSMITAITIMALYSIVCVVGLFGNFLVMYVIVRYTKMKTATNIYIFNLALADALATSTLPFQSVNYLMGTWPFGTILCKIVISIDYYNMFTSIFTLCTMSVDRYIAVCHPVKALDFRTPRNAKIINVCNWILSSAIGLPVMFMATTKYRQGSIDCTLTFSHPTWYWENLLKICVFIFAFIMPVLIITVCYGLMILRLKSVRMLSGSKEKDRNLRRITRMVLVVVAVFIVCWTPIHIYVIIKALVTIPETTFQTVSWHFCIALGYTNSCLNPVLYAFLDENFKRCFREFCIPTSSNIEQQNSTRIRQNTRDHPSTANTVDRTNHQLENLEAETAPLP

**Q.** Which AC50 [1] does the source give for `O=C(Cc1ccncc1)N1CCCCN2[C@@H](CO)[C@H](c3ccc(C#Cc4ccccc4F)cc3)[C@@H]2C1` here?
**A.** The AC50 was 13.1 µM (active).

**Q.** Which results are given for `COC(=O)Cc1nnn2c1[C@H](C)[C@H](c1ccccc1Br)OCC2`?
**A.** IC50 [2]: > 29.9 µM (inactive); EC50 [3]: > 29.9 µM (inactive); IC50 [4]: 1.28 µM (active); EC50 [5]: > 29.9 µM (inactive)

**Q.** With `Cc1ccc(/C=C2\SC(=S)N(CCCC(=O)NNC(=O)c3ccccc3O)C2=O)cc1` as the molecule, how does the IC50 [6] read?
**A.** The IC50 was > 100 µM (inactive).

**Q.** And the IC50 (Albumin)?
**A.** The IC50 was > 94.1 µM (inactive).

**Q.** What about the IC50 [7] of the same molecule?
**A.** Its IC50 is 28.3 µM (active).

**Q.** And the IC50 [8]?
**A.** Its IC50 is > 80 µM (inactive).

**Q.** And the IC50 (Prothrombin)?
**A.** The IC50 was 32.8 µM (active).

**Q.** Which EC50 [9] does the source give for `CC(C(=O)Nc1cc(Cl)ccn1)N(c1ccccc1Cl)S(C)(=O)=O` (stereo not drawn) here?
**A.** Its EC50 is 10 µM (inconclusive).

**Q.** With `CC[n+]1c(/C=C/N(C)c2ccccc2)sc2ccc(Cl)cc21` as the molecule, how does the AC50 [10] read?
**A.** Its AC50 is 9.07 µM (active).

**Q.** What about the AC50 (Cytochrome P450 3A4) of the same molecule?
**A.** Its AC50 is 17.8 µM (inconclusive).

**Q.** What about the IC50 [11] of the same molecule?
**A.** The IC50 was > 80 µM (inactive).

**Q.** For `Cc1ccc(C)n1-c1cc(C(=O)O)ccc1O`, which IC50 (NS3) is on record?
**A.** The IC50 was 50.4 µM (active).

**Q.** With `O=C(Nc1ccc(-c2ccccc2)cc1)NC1CCCC1` as the molecule, how does the AC50 [12] read?
**A.** Its AC50 is 68 µM (active).

**Q.** For `CCCN(CC(=O)Nc1ccccc1C)C(=O)C1CCN(S(=O)(=O)c2ccc(C)c(C)c2)CC1`, which AC50 (Vero) is on record?
**A.** The AC50 was 13.2 µM (active).

**Q.** With `Cc1cc2c(C)cc(=O)oc2c2c1NCCC2` as the molecule, how does the EC50 [13] read?
**A.** The EC50 was > 50 µM (not active).

**Q.** And the AC50 (cells [14])?
**A.** Its AC50 is > 52 µM (inactive).

**Q.** What about the AC50 (cells [15]) of the same molecule?
**A.** The AC50 was > 52 µM (inactive).

**Q.** With `NC(c1csc(Nc2ccc(C(=O)c3ccccc3)cc2)n1)C1CCCCC1` (stereo not drawn) as the molecule, how does the AC50 [16] read?
**A.** Its AC50 is 26.6 µM (active).

**Q.** Which results are given for `Clc1cccc(-c2nnc(-c3ccccc3)o2)c1`?
**A.** EC50 [17]: > 67.5 µM (inactive); EC50 (HT-1080): > 50 µM (not active); EC50 [18]: 26.3 µM (active); EC50 [19]: 49 µM (active); EC50 [20]: 50.7 µM (active)

**Q.** Which results are given for `CCOC(=O)N1CCC(N2CCCC(C(=O)c3ccccc3OC)C2)CC1` (stereo not drawn)?
**A.** EC50 [21]: 41.2 µM (inactive); EC50 (Mu-type opioid receptor): 92.5 µM (inactive)
